In data set [1] the test system is rat. The following applies: Subchronic oral toxicity in rodents, fischer, Water, dose end: 13 week, group: systemic.
The test system of data set [2] is rat. As to conditions: Subchronic oral toxicity in rodents, fischer, Water, dose end: 13 week, group: systemic. The source holds these as a separate data set.
The subject of data set [3] is rat. The following applies: Combined chronic toxicity/carcinogenicity; fischer; Oral; Water; dose end: 21 month; group: systemic; systemic / pathology microscopic / heart / thrombus + systemic / pathology microscopic / liver / degeneration + systemic / pathology ….
The subject of data set [4] is mouse. The following applies: Subchronic oral toxicity in rodents, b6c3f1, Water, dose end: 30 day, group: systemic.
In data set [5] the test system is rat. The following applies: Carcinogenicity; fischer; Oral; Feed; dose end: 105 week; group: systemic; systemic / in life observation / clinical signs / convulsions + systemic / in life observation / clinical signs / nervousness + systemic / ….
Data set [6] relates to rat. The following applies: Subchronic oral toxicity in rodents, other, Feed, dose end: 6 week, group: systemic.
Data set [7] deals with rat. As to conditions: Developmental neurotoxicity study; Oral; Feed; dose end: 90 PND; group: cannot be grouped; systemic / organ weight / liver / relative to body weight + systemic / pathology microscopic / liver / vacuolization.
Data set [8] deals with mouse. The following applies: Carcinogenicity, b6c3f1, Oral, Feed, dose end: 80 week, group: systemic.
Data set [9] relates to rat. The following applies: Subchronic oral toxicity in rodents, fischer, Feed, dose end: 8 week, group: systemic.
The test system of data set [10] is mouse. As to conditions: Subchronic oral toxicity in rodents, b6c3f1, Feed, dose end: 6 week, group: systemic, systemic / in life observation / mortality / mortality.
Data set [11] relates to rat. The following applies: Carcinogenicity, other, Oral, Feed, dose end: 80 week, group: systemic.
Data set [12] relates to mouse. As to conditions: Multigenerational reproductive toxicity study; other; Oral; Feed; dose end: 1 generation; group: reproductive; reproductive / offspring survival early / litter size / litter size.
Data set [13] deals with rat. The following applies: Combined chronic toxicity/carcinogenicity, wistar, Oral, Feed, dose end: 104 week, group: systemic.
Data set [14] relates to mouse. As to conditions: Carcinogenicity, other, Oral, Feed, dose end: 92 week, group: systemic.
Setting [15] is: systemic / clinical chemistry / creatinine / creatinine + systemic / clinical chemistry / thyroxine (t4) / thyroxine (t4), total + systemic….
[16] abbreviates: systemic / in life observation / body weight / body weight + systemic / pathology microscopic / kidney / nephropathy + systemic / pathology ….
Setting [17] is: systemic / in life observation / body weight / body weight gain + systemic / organ weight / kidney / relative to body weight + systemic / ….
[18] abbreviates: systemic / organ weight / liver / relative to body weight.
[19] abbreviates: systemic / clinical chemistry / triglycerides / triglycerides.
Setting [20] is: systemic / organ weight / kidney / absolute + systemic / organ weight / kidney / relative to body weight + systemic / organ weight / liver….
Setting [21] is: systemic / in life observation / body weight / body weight.
[22] abbreviates: systemic / in life observation / body weight / body weight + systemic / in life observation / mortality / mortality.
Where [23] appears, read: systemic / in life observation / clinical signs / excitation + systemic / in life observation / clinical signs / tremors.
Where [24] appears, read: systemic / in life observation / clinical signs / excitation + systemic / in life observation / clinical signs / tremors + systemic / in ….
Where [25] appears, read: systemic / pathology microscopic / brain / necrosis + systemic / in life observation / body weight / body weight + systemic / in life ….
Setting [26] is: systemic / in life observation / body weight / body weight + systemic / in life observation / clinical signs / [other] + systemic / in life ….
Setting [27] is: systemic / pathology microscopic / liver / hypertrophy + systemic / pathology microscopic / thyroid gland / [other].
Setting [28] is: systemic / pathology microscopic / liver / hypertrophy + systemic / pathology microscopic / thyroid gland / [other] + systemic / in life ….
The mark [29] stands for this setting: systemic / pathology microscopic / liver / depletion glycogen.
[30] abbreviates: systemic / pathology microscopic / liver / depletion glycogen + systemic / pathology microscopic / lung / adenocarcinoma + systemic / ….

In general, LOAEL refers to the lowest tested level that showed an adverse finding. Usually NOAEL stands for the highest tested level that showed no adverse finding.

Each structure is given as a SMILES string.

Consider `COc1cc(-c2ccc(N)c(OC)c2)ccc1N.Cl.Cl` [3,3'-Dimethoxybenzidine dihydrochloride], for which the LEL was found to be 11 mg/kg/day in the data set with rat [1] (setting [15]), 13 mg/kg/day with rat [2] (setting [18]) and 6 mg/kg/day in the data set with rat [3]. The NEL is < 11 mg/kg/day in the data set with rat [1] (setting [15]), < 13 mg/kg/day with rat [2] (setting [18]) and < 6 mg/kg/day in the data set with rat [3]. Also, the LOAEL is 109 mg/kg/day in the data set on rat [1] (setting [16]), > 120 mg/kg/day with rat [2] (setting [17]) and 6 mg/kg/day in the data set on rat [3]. For the same compound, the NOAEL in the data set on rat [1] (setting [16]) is 56 mg/kg/day; with rat [2] (setting [17]), ≥ 120 mg/kg/day; with rat [3] it was < 6 mg/kg/day.

Regarding `O=[As]([O-])([O-])[O-].[Na+].[Na+].[Na+]` [Trisodium arsenate], in the data set with mouse [4] (setting [19]), the LEL is 0.00625 mg/kg/day and the NEL is < 0.00625 mg/kg/day. In the data set with mouse [4] (setting [20]), the LOAEL was determined as 0.625 mg/kg/day and the NOAEL was 0.00625 mg/kg/day.

For `ClC1=C(Cl)[C@]2(Cl)[C@@H]3[C@@H]4C[C@@H]([C@H]5O[C@@H]45)[C@@H]3[C@@]1(Cl)C2(Cl)Cl` [Dieldrin], the LEL in the data set with rat [5] came out at 2.5 mg/kg/day; in the data set with rat [6] (setting [21]), 2 mg/kg/day; with rat [7], 0.00035 mg/kg/day; in the data set on mouse [8] (setting [24]), 0.375 mg/kg/day; in the data set with rat [9] (systemic / pathology microscopic / brain / necrosis + systemic / in life observation / body weight / body weight), 5 mg/kg/day; in the data set with mouse [10], 3 mg/kg/day. Also, the figures for the LEL with rat [11] (setting [26]) and with mouse [12] were 1.45 mg/kg/day and 0.75 mg/kg/day, respectively. Also, the LOAEL in the data set with rat [5] is > 2.5 mg/kg/day; in the data set with rat [6] (setting [22]), > 16 mg/kg/day; in the data set with rat [7], > 0.00035 mg/kg/day; in the data set with mouse [8] (setting [23]) it was 0.375 mg/kg/day; with rat [9] (systemic / pathology microscopic / brain / necrosis) it was 5 mg/kg/day; with mouse [10], > 6 mg/kg/day. Further, the LOAEL in the data set with rat [11] (systemic / in life observation / clinical signs / convulsions) was 3.25 mg/kg/day; in the data set with mouse [12], > 0.75 mg/kg/day. Moreover, the NEL with rat [5] is 0.5 mg/kg/day; with rat [6] (setting [21]), < 2 mg/kg/day; in the data set on rat [7] it was < 0.00035 mg/kg/day; in the data set on mouse [8] (setting [24]) it was < 0.375 mg/kg/day; in the data set with rat [9] (setting [25]) it was 2.5 mg/kg/day; in the data set with mouse [10], 1.5 mg/kg/day. Besides, the NEL in the data set with rat [11] (setting [26]) is < 1.45 mg/kg/day; with mouse [12], < 0.75 mg/kg/day. Besides, the NOAEL in the data set on rat [5] is ≥ 2.5 mg/kg/day; in the data set on rat [6] (setting [22]), ≥ 16 mg/kg/day; in the data set with rat [7] it was ≥ 0.00035 mg/kg/day; in the data set on mouse [8] (setting [23]), < 0.375 mg/kg/day; in the data set on rat [9] (setting [25]), 2.5 mg/kg/day; in the data set on mouse [10] it was ≥ 6 mg/kg/day. Also, the results for the NOAEL with rat [11] (systemic / in life observation / clinical signs / convulsions + systemic / in life observation / body weight / body weight + systemic / in …) and in the data set with mouse [12] were 1.45 mg/kg/day and ≥ 0.75 mg/kg/day, respectively.

In the case of `CC1(C)[C@H](C(=O)OCc2cccc(Oc3ccccc3)c2)[C@@H]1C=C(Cl)Cl` [1RS cis-Permethrin], in the data set on rat [13] (setting [27]), the LEL was determined as 50 mg/kg/day and the LOAEL was found to be 50 mg/kg/day. Moreover, in the data set on rat [13] (setting [28]), the NEL worked out at 10 mg/kg/day and the NOAEL is 10 mg/kg/day. In the data set with mouse [14] (setting [29]), the LEL turned out to be 10 mg/kg/day and the NEL was < 10 mg/kg/day. In the data set with mouse [14] (setting [30]), the LOAEL is > 250 mg/kg/day and the NOAEL was ≥ 250 mg/kg/day.

The values above are taken from EPA's ToxRefDB 2.
